Measured values reported in patent US20090239841A1, “Diaryl Ureas as CB1 Antagonists” (priority 2004, published 2009).

Target: T1, hCB1 (Homo sapiens, UniProt P21554)
T1 construct: made in house; host or cells: Sf9 insect cells (baculovirus), P2 membranes
Test: Agonist-induced GTP binding (GTPγ35S) assay at CB1, Example 8
Type: biochemical
Settings: Table II; IC50 at CB1, GTP binding with 1 nM CP55,940; read-out: IC50
In short: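 Membranes from Sf9 cells co-expressing hCB1 and heterotrimeric G-protein (10 μg protein) in Tris pH 7.4 buffer with 5 μM GDP. Test compounds (10^−10–10^−5 M) competed against 1 nM CP55,940 with […] GTPγ35S, 60 min at room temperature. Filter-bound radioactivity by scintillation, expressed as percent above basal.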

T1 sequence (P21554 whole entry): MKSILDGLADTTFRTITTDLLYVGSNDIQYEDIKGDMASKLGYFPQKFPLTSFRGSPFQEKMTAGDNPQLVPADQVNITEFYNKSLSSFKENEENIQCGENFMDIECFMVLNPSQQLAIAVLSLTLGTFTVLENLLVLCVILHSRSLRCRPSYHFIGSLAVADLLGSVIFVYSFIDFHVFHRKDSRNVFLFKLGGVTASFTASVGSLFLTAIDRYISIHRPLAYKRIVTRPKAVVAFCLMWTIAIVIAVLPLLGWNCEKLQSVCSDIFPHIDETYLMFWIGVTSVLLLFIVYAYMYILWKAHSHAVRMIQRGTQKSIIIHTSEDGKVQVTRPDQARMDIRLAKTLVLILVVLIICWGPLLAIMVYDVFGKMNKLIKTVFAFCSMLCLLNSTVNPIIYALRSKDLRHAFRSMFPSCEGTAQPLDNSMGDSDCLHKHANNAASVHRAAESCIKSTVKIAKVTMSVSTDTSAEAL

Row | IC50 [nM] | SMILES
1 | < 2000 | O=C(Nc1ccc(OC(F)F)cc1)Nc1cccc(-c2cocn2)c1 [Compound 138]
2 | < 2000 | N#Cc1cc(NC(=O)Nc2ccc(OC(F)F)cc2)ccc1F [Compound 139, N-(3-cyano-4-fluorophenyl)-N′-[4-(difluoromethoxy)phenyl]urea]
3 | < 2000 | O=C(Nc1ccc(OC(F)F)cc1)Nc1ccc(C(=O)c2ccccc2)cc1 [Compound 140, N-(4-benzoylphenyl)-N′-[4-(difluoromethoxy)phenyl]urea]
4 | < 2000 | O=C(Nc1ccc(OC(F)F)cc1)Nc1cccc2cccc(Cl)c12 [Compound 141, N-(8-chloro-1-naphthyl)-N′-[4-(difluoromethoxy)phenyl]urea]
5 | < 2000 | Cc1ccc2cc(NC(=O)Nc3ccc(OC(F)F)cc3)ccc2n1 [Compound 142, N-[4-(difluoromethoxy)phenyl]-N′-(2-methylquinolin-6-yl)urea]
6 | < 2000 | O=C(Nc1cccc(OC(F)F)c1)Nc1ccc(N2CCOCC2)c(Cl)c1 [Compound 143, N-(3-chloro-4-morpholin-4-ylphenyl)-N′-[3-(difluoromethoxy)phenyl]urea]
7 | < 2000 | CC(C)Oc1ccc(NC(=O)Nc2cccc(OC(F)F)c2)cc1 [Compound 144, N-[3-(difluoromethoxy)phenyl]-N′-(4-isopropoxyphenyl)urea]
8 | < 2000 | O=C(Nc1cccc(OC(F)F)c1)Nc1cccc(OC(F)(F)F)c1 [Compound 145, N-{3-(difluoromethoxy)phenyl]-N′-[3-(trifluoromethoxy)phenyl]urea]
9 | < 2000 | Cc1noc(C)c1-c1cccc(NC(=O)Nc2cccc(OC(F)F)c2)c1 [Compound 146, N-[3-(difluoromethoxy)phenyl]-N′-[3-(3,5-dimethylisoxazol-4-yl)phenyl]urea]
10 | < 2000 | Cc1cc(-c2cccc(NC(=O)Nc3cccc(OC(F)F)c3)c2)cc(C)n1 [Compound 147]
11 | < 2000 | CCOC(=O)c1cccc(NC(=O)Nc2ccc(OC(F)F)cc2)c1 [Compound 148, ethyl 3-[({[4-(difluoromethoxy)phenyl]amino}carbonyl)amino]benzoate]
12 | < 2000 | O=C(Nc1ccc(OC(F)F)cc1)Nc1cccnc1Cl [Compound 149, N-(2-chloropyridin-3-yl)-N′-[4-(difluoromethoxy)phenyl]urea]
13 | < 2000 | Cc1ccnc(NC(=O)Nc2ccc(OC(F)F)cc2)c1 [Compound 151, N-[4-(difluoromethoxy)phenyl]-N′-(4-methylpyridin-2-yl)urea]
14 | < 2000 | CCc1ccc(NC(=O)Nc2ccc(F)c(C#N)c2)cc1 [Compound 152, N-(3-cyano-4-fluorophenyl)-N′-(4-ethylphenyl)urea]
15 | < 2000 | CCc1ccc(NC(=O)Nc2ccc(Cl)nc2)cc1 [Compound 153, N-(6-chloropyridin-3-yl)-N′-(4-ethylphenyl)urea]
16 | < 2000 | CCCc1ccc(NC(=O)Nc2cccc(C)c2)cc1 [Compound 154, N-(3-methylphenyl)-N′-(4-propylphenyl)urea]
17 | < 2000 | CCCCc1ccc(NC(=O)Nc2cccc(C)c2)cc1 [Compound 155, N-(4-butylphenyl)-N′-(3-methylphenyl)urea]
18 | < 2000 | Cc1cccc(NC(=O)Nc2cccc(OC(C)C)c2)c1 [Compound 156, N-(3-isopropoxyphenyl)-N′-(3-methylphenyl)urea]
19 | < 2000 | Cc1ccc(NC(=O)Nc2ccc(C(C)C)cc2)cc1 [Compound 157, N-(4-isopropylphenyl)-N′-(4-methylphenyl)urea]

Row | IC50 [nM] | SMILES
20 | < 2000 | CCOc1ccc(NC(=O)Nc2cccc(C)c2)cc1 [Compound 158, N-(4-ethoxyphenyl)-N′-(3-methylphenyl)urea]
21 | < 2000 | CCCOc1ccc(NC(=O)Nc2cccc(C)c2)cc1 [Compound 159, N-(3-methylphenyl)-N′-(4-propoxyphenyl)urea]
22 | < 2000 | Cc1ccc(NC(=O)Nc2ccc(C)c(F)c2)cc1 [Compound 160, N-(3-fluoro-4-methylphenyl)-N′-(4-methylphenyl)urea]
23 | < 2000 | O=C(Nc1ccccc1)Nc1ccc2c(c1)CCC2 [Compound 161, N-(2,3-dihydro-1H-inden-5-yl)-N′-phenylurea]
24 | < 2000 | Cc1cccc(NC(=O)Nc2ccc(N3CCOCC3)c(Cl)c2)c1 [Compound 162, N-(3-chloro-4-morpholin-4-ylphenyl)-N′-(3-methylphenyl)urea]
25 | < 2000 | Cc1cccc(NC(=O)Nc2cccc(-c3ccnc(C)n3)c2)c1 [Compound 163, N-(3-methylphenyl)-N′-[3-(2-methylpyrimidin-4-yl)phenyl]urea]
26 | < 2000 | Cc1ccc(NC(=O)Nc2cccc(-c3ccnc(C)n3)c2)cc1 [Compound 164, N-(4-methylphenyl)-N′-[3-(2-methylpyrimidin-4-yl)phenyl]urea]
27 | < 2000 | Cc1cccc(NC(=O)Nc2ccc(-n3cnc(Cl)c3Cl)cc2)c1 [Compound 165, N-{4-(4,5-dichloro-1H-imidazol-1-yl)phenyl]-N′-(3-methylphenyl)urea]
28 | < 2000 | Cc1ccc(NC(=O)Nc2ccc(-n3cnc(Cl)c3Cl)cc2)cc1 [Compound 166, N-[4-(4,5-dichloro-1H-imidazol-1-yl)phenyl]-N′-(4-methylphenyl)urea]
29 | < 2000 | O=C(Nc1ccccc1)Nc1ccc(N2CCCCC2)cc1 [Compound 167, N-phenyl-N′-(4-piperidin-1-ylphenyl)urea]
30 | < 2000 | Cc1cccc(NC(=O)Nc2ccc(N3CCCCC3)cc2)c1 [Compound 168, N-(3-methylphenyl)-N′-(4-piperidin-1-ylphenyl)urea]
31 | < 2000 | Cc1ccc(NC(=O)Nc2ccc(N3CCCCC3)cc2)cc1 [Compound 169, N-(4-methylphenyl)-N′-(4-piperidin-1-ylphenyl)urea]
32 | < 2000 | Cc1ccc(NC(=O)Nc2cc3ccccc3c(Br)n2)cc1 [Compound 170, N-(1-bromoisoquinolin-3-yl)-N′-(4-methylphenyl)urea]
33 | < 2000 | Cc1ccc(NC(=O)Nc2ccc(C)cc2)cc1 [Compound 171, N,N′-bis(4-methylphenyl)urea]
34 | < 2000 | Cc1ccc(NC(=O)Nc2ccc(F)cc2)cc1 [Compound 172, N-(4-fluorophenyl)-N′-(4-methylphenyl)urea]
35 | < 2000 | Cc1ccc(NC(=O)Nc2cccc(F)c2)cc1 [Compound 173, N-(3-fluorophenyl)-N′-(4-methylphenyl)urea]
36 | < 2000 | CCc1cccc(NC(=O)Nc2ccc(C)cc2)c1 [Compound 174, N-(3-ethylphenyl)-N′-(4-methylphenyl)urea]
37 | < 2000 | CCc1ccc(NC(=O)Nc2ccc(F)cc2)cc1 [Compound 175, N-(4-ethylphenyl)-N′-(4-fluorophenyl)urea]
38 | < 2000 | CC(C)c1ccc(NC(=O)Nc2ccc(F)cc2)cc1 [Compound 176, N-(4-fluorophenyl)-N′-(4-isopropylphenyl)urea]

Row | IC50 [nM] | SMILES
39 | < 2000 | CCCc1ccc(NC(=O)Nc2cccc(F)c2)cc1 [Compound 177, N-(3-fluorophenyl)-N′-(4-propylphenyl)urea]
40 | < 2000 | CCCc1ccc(NC(=O)Nc2ccc(F)cc2)cc1 [Compound 178, N-(4-fluorophenyl)-N′-(4-propylphenyl)urea]
41 | < 2000 | CCc1ccc(NC(=O)Nc2cccc(CC)c2)cc1 [Compound 179, N-(3-ethylphenyl)-N′-(4-ethylphenyl)urea]
42 | < 2000 | CCc1ccc(NC(=O)Nc2cccc(Cl)c2)cc1 [Compound 180, N-(3-chlorophenyl)-N′-(4-ethylphenyl)urea]
43 | < 2000 | CCc1ccc(NC(=O)Nc2ccc(C(C)C)cc2)cc1 [Compound 181, N-(4-ethylphenyl)-N′-(4-isopropylphenyl)urea]
44 | < 2000 | CC(C)c1ccc(NC(=O)Nc2ccc(Cl)cc2)cc1 [Compound 182, N-(4-chlorophenyl)-N′-(4-isopropylphenyl)urea]
45 | < 2000 | CCCc1ccc(NC(=O)Nc2cccc(CC)c2)cc1 [Compound 183, N-(3-ethylphenyl)-N′-(4-propylphenyl)urea]
46 | < 2000 | CCCc1ccc(NC(=O)Nc2cccc(Cl)c2)cc1 [Compound 184, N-(3-chlorophenyl)-N′-(4-propylphenyl)urea]
47 | < 2000 | CCCc1ccc(NC(=O)Nc2ccc(Cl)cc2)cc1 [Compound 185, N-(4-chlorophenyl)-N′-(4-propylphenyl)urea]
48 | < 2000 | Cc1ccc(NC(=O)Nc2cccc(C#N)c2)cc1 [Compound 186, N-(3-cyanophenyl)-N′-(4-methylphenyl)urea]
49 | < 2000 | CC(=O)c1ccc(NC(=O)Nc2ccc(C)cc2)cc1 [Compound 187, N-(4-acetylphenyl)-N′-(4-methylphenyl)urea]
50 | < 2000 | CC(=O)c1ccc(NC(=O)Nc2cccc(F)c2)cc1 [Compound 188, N-(4-acetylphenyl)-N′-(3-fluorophenyl)urea]
51 | < 2000 | CC(=O)c1ccc(NC(=O)Nc2ccc(F)cc2)cc1 [Compound 189, N-(4-acetylphenyl)-N′-(4-fluorophenyl)urea]
52 | < 2000 | CCc1cccc(NC(=O)Nc2ccc(C(C)=O)cc2)c1 [Compound 190, N-(4-acetylphenyl)-N′-(3-ethylphenyl)urea]
53 | < 2000 | CC(=O)c1ccc(NC(=O)Nc2cccc(Cl)c2)cc1 [Compound 191, N-(4-acetylphenyl)-N′-(3-chlorophenyl)urea]
54 | < 2000 | CC(=O)c1ccc(NC(=O)Nc2ccc(Cl)cc2)cc1 [Compound 192, N-(4-acetylphenyl)-N′-(4-chlorophenyl)urea]
55 | < 2000 | CC(C)c1ccc(NC(=O)Nc2ccc(C#N)cc2)cc1 [Compound 193, N-(4-cyanophenyl)-N′-(4-isopropylphenyl)urea]
56 | < 2000 | CC(C)c1ccc(NC(=O)Nc2cccc(C#N)c2)cc1 [Compound 194, N-(3-cyanophenyl)-N′-(4-isopropylphenyl)urea]
57 | < 2000 | CC(=O)c1cccc(NC(=O)Nc2ccc(C(C)C)cc2)c1 [Compound 195, N-(3-acetylphenyl)-N′-(4-isopropylphenyl)urea]
